Data from US20250134874A1, “PHARMACEUTICAL FORMULATIONS COMPRISING 3-({[(4R)-7-{METHYL[4-(PROPAN-2-YL)PHENYL]AMINO}-3,4-DIHYDRO-2H-1-BENZOPYRAN-4-YL]METHYL}AMINO)PYRIDINE-4-CARBOXYLIC ACID” (TACHYON THERAPEUTICS, INC., priority 2021, published 2025).

System: 301 cancer cell lines from different tumor types (OncoPanel; HD Biosciences)
Assay: 2D cell viability inhibition assay (CellTiter-Glo) in cancer cell line panel
Type: cell-based
Conditions: Homo sapiens
Procedure: In a larger screening study, compound 1 was evaluated across a broad cancer cell line panel (OncoPanel; HD Biosciences) composed of 301 cancer cell lines from different tumor types.
2D cell viability inhibition assays were performed in multiwell plates seeded with cells from the panel. After seeding, the plates were cultured overnight in a humidified incubator at 37° C. to promote adherence. Assays were initiated in individual wells by adding either DMSO as a vehicle control, growth media as a blank, or serially diluted compound 1 (10 μM to 0.0005 μM with 1:3 serial dilution). Cultures were incubated for 168 hours after which the number of viable cells in each test well was assessed using the CellTiter-Glo® Luminescent Cell Viability Assay. Luminescence readouts were performed using an EnVision® Multilabel Reader and the compound 1 readouts were normalized to the DMSO control readouts, expressed as a percent of the control. Outliers were flagged out by visual inspection. Percent of control was plotted against the corresponding compound 1 concentration and the absolute IC50 value was determined using four-parameter logistic non-linear regression as the concentration where inhibition was 50% of the control. For maximum inhibition <50%, the absolute IC50 was reported as >10. In addition to EC50 and IC50, AUC was determined and was normalized to the area corresponding to theoretical no-inhibition (the rectangular area defined by the compound dose range and 0 to 100 in y). Emax was recorded as the minimum in y with the compound dose range. For those cell lines where Emax>40, EC50 was manually set to 10 μM. A hierarchical clustering algorithm based on Euclidean distance between the standardized input values and “Ward.D” method as implemented in R hclust function was used to visualize the compound 1 cellular potency data. The sensitive/moderate/resistant calls for each cell line was determined by visually inspecting the resulting clustering dendrogram. All the analyses were done in R Core Team.

In the case of CC(C)c1ccc(N(C)c2ccc3c(c2)OCC[C@H]3CNc2cnccc2C(=O)O)cc1 [Compound 1, 3-({[(4R)-7-{methyl[4-(propan-2-yl)phenyl]amino}-3,4-dihydro-2H-1-benzopyran-4-yl]methyl}amino)pyridine-4-carboxylic acid], the EC50 (NCI-H1944, NCIH1944 cell line) is reported as ≥ 10000 nM, the IC50 (NCI-H1944, NCIH1944 cell line) is reported as 16.3 nM and the EC50 (NCI-H1975, NCIH1975 cell line) is reported as 25.5 nM. For the same compound, the IC50 (NCI-H1975, NCIH1975 cell line) was 34.8 nM, the IC50 (NCI-H2009, 168 h, NCIH2009, lung, adenocarcinoma, 168 hours) was > 10000 nM and the EC50 (NCI-H2081, NCIH2081 cell line) was 1.46 nM. The IC50 (NCI-H2081, NCIH2081 cell line) was 2.57 nM, the EC50 (NCI-H2087, NCIH2087 cell line) was 2.58 nM and the IC50 (NCI-H2087, NCIH2087 cell line) was 3.56 nM. The EC50 (NCI-H2122, NCIH2122 cell line) was 16.7 nM, the IC50 (NCI-H2122, NCIH2122 cell line) was 23.9 nM and the EC50 (NCI-H2171, NCIH2171 cell line) was ≥ 10000 nM. For the same compound, the IC50 (NCI-H2171, NCIH2171 cell line) was > 10000 nM, the IC50 (NCI-H2228, NCIH2228 cell line) was 179 nM and the EC50 (NCI-H2286, NCIH2286 cell line) was 2.53 nM. It also gave an IC50 (NCI-H2286, NCIH2286 cell line) of 3.51 nM, an EC50 (NCI-H2291, NCIH2291 cell line) of 7.55 nM and an IC50 (NCI-H2291, NCIH2291 cell line) of 8.4 nM. For the same compound, the IC50 (NCI-H2347, NCIH2347 cell line) was 13.1 nM, the EC50 (NCI-N87, NCIN87 cell line) was 3.94 nM and the IC50 (NCI-N87, NCIN87 cell line) was 4.29 nM. For the same compound, the EC50 (NOMO-1, NOMO1 cell line) was 3.92 nM, the IC50 (NOMO-1, NOMO1 cell line) was 5.01 nM and the EC50 (NUGC-3, NUGC3 cell line) was 5.63 nM. For the same compound, the IC50 (NUGC-3, NUGC3 cell line) was 7.72 nM, the EC50 (NUGC-4, NUGC4 cell line) was 6.62 nM and the IC50 (NUGC-4, NUGC4 cell line) was 10.6 nM. For the same compound, the IC50 (ONS-76, 168 h, ONS76, central nervous system, NS, 168 hours) was > 10000 nM, the IC50 (OS-RC-2, OSRC2 cell line) was > 10000 nM and the IC50 (OVCAR-3, 168 h, NIHOVCAR3, ovary, NS, 168 hours) was > 10000 nM. The EC50 (P31-FUJ, P31FUJ cell line) was 2.43 nM, the IC50 (P31-FUJ, P31FUJ cell line) was 4.32 nM and the EC50 (PANC-1, PANC1 cell line) was 51.5 nM. It also gave an IC50 (PANC-1, PANC1 cell line) of 68.6 nM, an EC50 (PC-3, PC3 cell line) of 11.8 nM and an IC50 (PC-3, PC3 cell line) of 14.5 nM. The EC50 (PF-382, PF382 cell line) was 1.89 nM, the IC50 (PF-382, PF382 cell line) was 3.69 nM and the EC50 (PLC-PRF-5, PLCPRF5 cell line) was 16.4 nM. For the same compound, the IC50 (PLC-PRF-5, PLCPRF5 cell line) was 28 nM, the IC50 (RCM-1, RCM1 cell line) was > 10000 nM and the EC50 (RD, RD cell line) was 4.79 nM. For the same compound, the IC50 (RD, RD cell line) was 9.29 nM, the EC50 (REH, REH cell line) was 1.32 nM and the IC50 (REH, REH cell line) was 1.21 nM. The EC50 (RKO, RKO cell line) was 8.5 nM, the IC50 (RKO, RKO cell line) was 11.5 nM and the EC50 (RL, RL cell line) was 1.88 nM. For the same compound, the IC50 (RL, RL cell line) was 2.99 nM, the IC50 (RPMI-7951, 168 h, RPMI7951, skin, NS, 168 hours) was > 10000 nM and the EC50 (RPMI-8226, RPMI8226 cell line) was 10.4 nM. It also gave an IC50 (RPMI-8226, RPMI8226 cell line) of 12.5 nM, an EC50 (RT112/84, RT11284 cell line) of 4.14 nM and an IC50 (RT112/84, RT11284 cell line) of 4.43 nM. For the same compound, the IC50 (SAOS-2, 168 h, SAOS2, bone, NS, 168 hours) was > 10000 nM, the EC50 (SCC-4, SCC4 cell line) was 5.57 nM and the IC50 (SCC-4, SCC4 cell line) was 10.5 nM. For the same compound, the IC50 (SCC-9, 168 h, SCC9, upper aerodigestive tract, squamous cell carcinoma, 168 hours) was > 10000 nM, the IC50 (SCC-15, 168 h, SCC15, upper aerodigestive tract, squamous cell carcinoma, 168 hours) was > 10000 nM and the IC50 (SCC-25, 168 h, SCC25, upper aerodigestive tract, squamous cell carcinoma, 168 hours) was > 10000 nM. For the same compound, the EC50 (SCaBER, SCABER cell line) was 8.93 nM, the IC50 (SCaBER, SCABER cell line) was 15.2 nM and the EC50 (SH-SY5Y, SHSY5Y cell line) was 4.32 nM. The IC50 (SH-SY5Y, SHSY5Y cell line) was 13.5 nM, the EC50 (SK-BR-3, SKBR3 cell line) was 4.32 nM and the IC50 (SK-BR-3, SKBR3 cell line) was 7.14 nM. The EC50 (SK-CO-1, SKCO1 cell line) was ≥ 10000 nM, the IC50 (SK-CO-1, SKCO1 cell line) was 30.6 nM and the IC50 (SK-HEP1, 168 h, SKHEP1, liver, adenocarcinoma, 168 hours) was > 10000 nM. It also gave an EC50 (SK-LU-1, SKLU1 cell line) of 8.49 nM, an IC50 (SK-LU-1, SKLU1 cell line) of 40 nM and an IC50 (SK-MEL3, SKMEL3 cell line) of 472 nM. It also gave an EC50 (SK-MEL-1, SKMEL1 cell line) of 0.536 nM, an IC50 (SK-MEL-1, SKMEL1 cell line) of 9.24 nM and an EC50 (SK-MEL-2, SKMEL2 cell line) of 27 nM. The IC50 (SK-MEL-2, SKMEL2 cell line) was 140 nM, the EC50 (SK-MEL-5, SKMEL5 cell line) was 14.8 nM and the IC50 (SK-MEL-5, SKMEL5 cell line) was 16.8 nM. The IC50 (SK-MEL-24, 168 h, SKMEL24, skin, NS, 168 hours) was > 10000 nM, the EC50 (SK-MEL-28, SKMEL28 cell line) was 5.63 nM and the IC50 (SK-MEL-28, SKMEL28 cell line) was 5.56 nM. For the same compound, the EC50 (SK-MES-1, SKMES1 cell line) was 24.3 nM, the IC50 (SK-MES-1, SKMES1 cell line) was 47.5 nM and the IC50 (SK-N-SH, 168 h, SKNSH, autonomic ganglia, NS) was > 10000 nM. For the same compound, the IC50 (SK-OV-3, 168 h, SKOV3, ovary, adenocarcinoma, 168 hours) was > 10000 nM, the EC50 (SNB-19, SNB19 cell line) was 7.01 nM and the IC50 (SNB-19, SNB19 cell line) was 11.6 nM. The EC50 (SNU-5, SNU5 cell line) was 82.4 nM, the IC50 (SNU-5, SNU5 cell line) was 146 nM and the EC50 (SNU-16, SNU16 cell line) was 3.69 nM. For the same compound, the IC50 (SNU-16, SNU16 cell line) was 4.22 nM, the EC50 (SNU-398, SNU398 cell line) was 9.63 nM and the IC50 (SNU-398, SNU398 cell line) was 18 nM. For the same compound, the IC50 (SNU-C1, 168 h, SNUC1, large intestine, adenocarcinoma, 168 hours) was > 10000 nM, the IC50 (SUP-T1, SUPT1 cell line) was 3330 nM and the EC50 (SW48, SW48 cell line) was ≥ 10000 nM. For the same compound, the IC50 (SW48, SW48 cell line) was 50 nM, the EC50 (SW480, SW480 cell line) was 7.73 nM and the IC50 (SW480, SW480 cell line) was 9.79 nM. For the same compound, the EC50 (SW780, SW780 cell line) was 11.8 nM, the IC50 (SW780, SW780 cell line) was 13 nM and the IC50 (SW837, 168 h, SW837, large intestine, adenocarcinoma, 168 hours) was > 10000 nM. For the same compound, the IC50 (SW1417, 168 h, SW1417, large intestine, adenocarcinoma, 168 hours) was > 10000 nM, the EC50 (SW1463, SW1463 cell line) was 9.18 nM and the IC50 (SW1463, SW1463 cell line) was 9.24 nM. The EC50 (SW1710, SW1710 cell line) was 27.3 nM, the IC50 (SW1710, SW1710 cell line) was 63.3 nM and the IC50 (SW1990, SW1990 cell line) was > 10000 nM. For the same compound, the EC50 (SW-620, SW620 cell line) was 26.3 nM, the IC50 (SW-620, SW620 cell line) was 29.3 nM and the EC50 (T84, T84 cell line) was 10.1 nM. The IC50 (T84, T84 cell line) was 21 nM and the EC50 (TALL-1, TALL1 cell line) was 0.895 nM.
